Among the test systems are BT-549 breast; HS 578T breast; MCF7 breast; MDA-MB-231 breast; MDA-MB-435; DU-145 prostate; NCI-H226 lung.
Holding throughout (experiment): inhibition of tumour cell growth, NCI panel, 48 h

We go through 13 molecules from PubChem BioAssay (NCI).

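Protocol summary: plate cells (96-well), add compound at 5 concentrations, incubate 48 h, interpolate endpoints linearly. GI50 marks 50% less growth. TGI: total growth inhibition.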

On to `CC12OC(C(=O)C13CC3)C1C(=O)c3ccc4c(ccc5ccccc54)c3C(=O)C12` (stereo not drawn), for which the GI50 with BT-549 breast is 29.6 µM; with HS 578T breast it was 42.2 µM; in the test on MCF7 breast, 23.1 µM; in the test with MDA-MB-231 breast it was 13 µM; in the test with MDA-MB-435 it was 35.2 µM. In addition, the TGI in the test on BT-549 breast was 55.9 µM; in the test with HS 578T breast, above 100 µM; in the test on MCF7 breast it was above 100 µM; in the test with MDA-MB-231 breast it was 77.9 µM; in the test on MDA-MB-435, above 100 µM.

On to `CCc1nc2cc(F)c(/C=C/C(=O)NO)cc2c(=O)n1CCc1ccccc1`, for which the GI50 was 0.377 µM in the test with BT-549 breast; 0.358 µM with DU-145 prostate; 0.489 µM in the test on HS 578T breast; 0.302 µM in the test on MCF7 breast; 0.376 µM in the test on MDA-MB-231 breast; 0.445 µM in the test with MDA-MB-435. Further, in the test on NCI-H226 lung, the GI50 is 0.371 µM. In addition, the TGI in the test with BT-549 breast is 12.6 µM; in the test with DU-145 prostate, 10.5 µM; in the test on HS 578T breast, 26.9 µM; in the test with MCF7 breast, above 100 µM; in the test on MDA-MB-231 breast, 15.3 µM; with MDA-MB-435, 11.5 µM. Besides, the TGI in the test on NCI-H226 lung is 7.36 µM.

For the molecule `N#Cc1cc(-c2cc3ccccc3o2)oc1N`, the GI50 in the test on BT-549 breast was 3.58 µM; with DU-145 prostate, 4.4 µM; with HS 578T breast it was 0.401 µM; in the test on MCF7 breast it was 2.66 µM; in the test on MDA-MB-231 breast it was 1.89 µM; with MDA-MB-435 it was 3.69 µM. Also, the GI50 with NCI-H226 lung was 3.12 µM. In addition, the TGI turned out to be 14 µM with BT-549 breast; 28.9 µM with DU-145 prostate; 3.41 µM in the test with HS 578T breast; 15.3 µM in the test on MCF7 breast; 4.76 µM in the test with MDA-MB-231 breast; 16.9 µM in the test with MDA-MB-435. In addition, in the test with NCI-H226 lung, the TGI turned out to be 13.4 µM.

Regarding `NNC(=S)N/N=C(/C(=O)Nc1ccc(Cl)c(Cl)c1)C(C1OC(=O)c2ccccc21)[N+](=O)[O-]` (stereo not drawn), the TGI in the test with BT-549 breast, in the test on HS 578T breast, in the test on MCF7 breast, in the test with MDA-MB-231 breast, in the test with MDA-MB-435 and in the test with NCI-H226 lung was above 100 µM throughout.

On to `Cc1cc2nc(C=C(C(F)(F)F)C(F)(F)F)oc2cc1C`, for which the TGI is 6.13 µM with BT-549 breast; above 10 µM in the test with DU-145 prostate; 8.84 µM with HS 578T breast; above 10 µM in the test with MCF7 breast; 5.42 µM with MDA-MB-231 breast; 4.21 µM with MDA-MB-435.

Regarding `COc1ccc(C(=O)c2cc(C)c(OC)c(C)c2)c(OC)c1O`, the GI50 was 0.0272 µM in the test with BT-549 breast; 0.0369 µM in the test with DU-145 prostate; 0.0274 µM in the test with HS 578T breast; 0.235 µM with MCF7 breast; 0.0587 µM in the test on MDA-MB-231 breast; 2.71 µM in the test with NCI-H226 lung. The TGI in the test with BT-549 breast is above 62 µM; in the test on DU-145 prostate, above 100 µM; in the test with HS 578T breast it was above 100 µM; with MCF7 breast it was above 100 µM; in the test with MDA-MB-231 breast, above 100 µM; with NCI-H226 lung it was 9.06 µM.

In the case of `C=C1C(=O)O[C@H]2[C@H]1CC/C(COC(=O)NCCCCNC(=O)OC/C1=C/CC[C@@]3(C)O[C@H]3[C@H]3OC(=O)C(=C)[C@@H]3CC1)=C\CC[C@@]1(C)O[C@@H]21`, the GI50 with BT-549 breast is 1.6 µM; in the test with DU-145 prostate, 3.21 µM; in the test with HS 578T breast, 2.54 µM; with MDA-MB-231 breast it was 1.53 µM; with MDA-MB-435, 1.24 µM; with NCI-H226 lung, 11.4 µM. The TGI in the test with BT-549 breast amounted to 3.63 µM; in the test with DU-145 prostate, 10.5 µM; with HS 578T breast, 8.14 µM; in the test on MDA-MB-231 breast, 3.24 µM; in the test on MDA-MB-435 it was 3.41 µM; with NCI-H226 lung it was 30.5 µM.

For `COc1cc2c(cc1OCCCCC(=O)Nc1cc3c4ccccc4ccc3c3ccccc13)N=C[C@@H]1CCCN1C2=O`, the GI50 is 2.84 µM in the test on DU-145 prostate; 17.7 µM in the test on HS 578T breast; 3.45 µM with MCF7 breast; 1.06 µM in the test on MDA-MB-231 breast; 5.44 µM in the test on MDA-MB-435; 0.665 µM in the test with NCI-H226 lung. Besides, the TGI with DU-145 prostate was 14.1 µM; with HS 578T breast, above 100 µM; in the test with MCF7 breast, 34.1 µM; in the test with MDA-MB-231 breast, 17 µM; in the test on MDA-MB-435, above 92.9 µM; in the test with NCI-H226 lung it was 10.8 µM.

`CCCCC(CC)COC(=O)C[N+](C)(C)CCOC(c1ccccc1)c1ccccc1` (stereo not drawn): the GI50 was 5.53 µM in the test on DU-145 prostate; 2.08 µM with HS 578T breast; 1.99 µM in the test with MCF7 breast; 1.83 µM in the test with MDA-MB-231 breast; 1.71 µM with MDA-MB-435; 6.83 µM in the test on NCI-H226 lung. Also, the TGI in the test on DU-145 prostate amounted to 18 µM; in the test with HS 578T breast, 6.68 µM; in the test on MCF7 breast it was 4.34 µM; in the test with MDA-MB-231 breast it was 3.88 µM; with MDA-MB-435 it was 3.09 µM; with NCI-H226 lung, 27.4 µM.

Turning to `C=C(C)[C@@H]1CC[C@]2(CO)CC[C@]3(C)[C@H](CC[C@@H]4[C@@]5(C)C=C(C#N)C(=O)C(C)(C)[C@@H]5CC[C@]43C)[C@@H]12`, the GI50 in the test on BT-549 breast was 2.13 µM; in the test on DU-145 prostate it was 1.97 µM; in the test on HS 578T breast, 1.89 µM; in the test with MCF7 breast, 0.34 µM; with MDA-MB-231 breast, 1.56 µM; in the test on NCI-H226 lung, 2.39 µM. The TGI in the test with BT-549 breast was 6.18 µM; in the test with DU-145 prostate, 5.75 µM; in the test with HS 578T breast, 6.84 µM; with MCF7 breast it was 7.66 µM; in the test on MDA-MB-231 breast, 4.82 µM; with NCI-H226 lung, 5.49 µM.

Take `CC1(C)C(=O)/C(=C\c2cccnc2)C[C@]2(C)[C@H]3CC[C@@H]4[C@H]5[C@H](C(=O)/C=C/c6cccnc6)CC[C@]5(C(=O)O)CC[C@@]4(C)[C@]3(C)CC[C@@H]12`: the GI50 with BT-549 breast was 1.95 µM; in the test on DU-145 prostate, 2.1 µM; in the test with HS 578T breast, 7.61 µM; with MCF7 breast it was 2.56 µM; in the test on MDA-MB-435, 3.2 µM. Further, the TGI in the test on BT-549 breast is 4.41 µM; with DU-145 prostate, 5 µM; in the test with HS 578T breast it was above 100 µM; in the test with MCF7 breast, 10.7 µM; in the test on MDA-MB-435, 12.9 µM.

As to `COc1cc2c3c(n(CCCN)c(=O)c2cc1OC)-c1ccc(C#N)cc1C3=O`, the GI50 is 12.3 µM with DU-145 prostate; 18 µM in the test on HS 578T breast; 8.36 µM in the test on MCF7 breast; 14.3 µM in the test on MDA-MB-231 breast; 18.6 µM in the test on MDA-MB-435; 17.3 µM in the test on NCI-H226 lung. Also, the TGI with DU-145 prostate turned out to be 25.5 µM; in the test on HS 578T breast it was 41.5 µM; in the test with MCF7 breast, 40.1 µM; with MDA-MB-231 breast, 29.3 µM; in the test on MDA-MB-435, 39.9 µM; in the test with NCI-H226 lung, 38 µM.

As for `OCC1OC(n2cnc3c2NC=NC[C@H]3O)C(Cl)C1O` (stereo partly drawn), the TGI in the test with BT-549 breast, in the test with DU-145 prostate, with HS 578T breast, in the test with MCF7 breast, with MDA-MB-231 breast and in the test with MDA-MB-435 was above 100 µM throughout.
